Experimental data published in US9113629B2, “4-amino-6-(4-substituted-phenyl)-picolinates and 6-amino-2-(4-substituted-phenyl)-pyrimidine-4-carboxylates and their use as herbicides” (DOW AGROSCIENCES LLC, priority 2013, dated 2015).
Read-outs that look alike come from different tables or passages of the source.

Tests used:
LAMSS = test: Pre-emergent Test III, preemergent activity in wheat and barley; format: in vivo
Experimental: Pre-emergent Test III. Seeds of test species were planted into square plastic pots (10 cm wide) containing sandy loam soil. After planting, all pots were sub-irrigated 16 h prior to compound application. A weighed amount, determined by the highest rate to be tested, of each test compound was placed in a 25 mL glass vial and was dissolved in 4 mL of a 97:3 v/v mixture of acetone and DMSO to obtain concentrated stock solutions. […] The concentrated stock solutions obtained were diluted with 20 mL of an aqueous mixture containing water and 0.02% w/v (weight/volume) of Triton X-155 to obtain spray solutions containing the highest application rates. Additional application rates were obtained by serial dilution of 12 mL of the high rate solution into a solution containing 2 mL of 97:3 v/v mixture of acetone and DMSO and 10 mL of an aqueous mixture containing water and 0.02% w/v (weight/volume) of Triton X-155 to obtain 1⁄2×, 1⁄4×, 1⁄8× and 1/16× rates of the high rate. Compound requirements are based upon a 12 mL application volume at a rate of 187 liters per hectare (L/ha). Formulated compounds were applied to the soil surface with an overhead Mandel track sprayer equipped with […] nozzles calibrated to deliver 187 L/ha over an application area of 0.503 square meters. Control pots were sprayed in the same manner with the solvent blank. The treated pots and control pots were placed in a greenhouse as described above and watered through surface irrigation. After 21 d, the condition of the test pots as compared with that of the untreated pots was determined visually and scored on a scale of 0 to 100 percent where 0 corresponds to no herbicidal effect and 100 corresponds to plant death or lack of emergence from the soil. By applying the well-accepted probit analysis as described by J. Berkson in Journal of the American Statistical Society, 48, 565 (1953) and by D. Finney in “Probit Analysis” Cambridge University Press (1952), the above data can be used to calculate GR20, GR50, GR80 and GR90 values, which are defined as growth reduction factors that correspond to the effective dose of herbicide required to kill or control 20 percent, 50 percent, 80 percent or 90 percent, respectively, of a target plant.

[1] = test system: test plant species in Direct Seeded Rice; test: Postemergence herbicidal activity in direct seeded rice (Table 13); format: in vivo; conditions: for pest or weed control at 35 g/ha / pest or weed control at 70 g/ha: post-emergence, 504 h; for pest or weed control at 35 g/ha: 35 g ai/ha; for pest or weed control at 70 g/ha: 70 g ai/ha
Procedure, shortened: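 Visual injury scores (0 no injury to 100 complete kill) taken 20-22 days after treatment were converted by probit analysis into GR20–GR90 doses. Treatment was an overhead track spray at 187 L/ha onto second-to-third true leaf plants, using acetone/DMSO (final 16.2%/0.5%) with Agri-dex crop oil; solvent blank served as control.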

[2] = BRAPP: broadleaf signalgrass, Brachiaria platyphylla, probit analysis
[3] = CYPSS: sedge (Cyperus difformis, esculentus, iria), probit analysis
[4] = ECHSS: barnyardgrass (Echinochloa crus-galli), junglerice (Echinochloa colonum), probit analysis
[5] = LEFSS: sprangletop (Leptochloa chinensis, Leptochloa dubia), probit analysis
[6] = SCPJU: Japanese bulrush, Scirpus juncoides, probit analysis
[7] = SEBEX: hemp sesbania, Sesbania exaltata, probit analysis
[8] = BRAPP: broadleaf signalgrass, Brachiaria platyphylla, read-out: Visual Growth Reduction (%) 21 Days After Application BRAPP
[9] = CYPSS: sedge (Cyperus difformis, esculentus, iria), read-out: Visual Growth Reduction (%) 21 Days After Application CYPSS
[10] = ECHSS: barnyardgrass (Echinochloa crus-galli), junglerice (Echinochloa colonum), read-out: Visual Growth Reduction (%) 21 Days After Application ECHSS
[11] = LEFSS: sprangletop (Leptochloa chinensis, Leptochloa dubia), read-out: Visual Growth Reduction (%) 21 Days After Application LEFSS
[12] = ORYSS: Oryza sativa, read-out: Visual Growth Reduction (%) 21 Days After Application ORYSS
[13] = SCPJU: Japanese bulrush, Scirpus juncoides, read-out: Visual Growth Reduction (%) 21 Days After Application SCPJU
[14] = SEBEX: hemp sesbania, Sesbania exaltata, read-out: Visual Growth Reduction (%) 21 Days After Application SEBEX

`COC(=O)c1nc(-c2ccc(Br)c(F)c2)c(F)c(N)c1Cl` [Compound 49] was tested, and the “Visual Growth Reduction (%) 21 Days After Application, LAMSS” value (LAMSS; 35 g ai/ha) was “A (95-100)”, the “Visual Growth Reduction (%) 21 Days After Application, LAMSS” value (LAMSS; 70 g ai/ha) was “A (95-100)” and the “GR50 LAMSS” value (LAMSS; 21 days after application, dose to kill or control 50%, probit analysis) was 1 g ai/ha. For the same compound, the “GR80 LAMSS” value (LAMSS; 21 days after application, dose to kill or control 80%, probit analysis) was 3 g ai/ha.

In the case of `COC(=O)c1nc(-c2ccc(Cl)c(F)c2)c(F)c(N)c1Cl` [Compound 216], the “GR50 BRAPP” value [1, 2] is reported as 8 g ai/ha, the “GR80 BRAPP” value [1, 2] is reported as 27 g ai/ha and the “GR50 CYPSS” value [1, 3] is reported as 10 g ai/ha. For the same compound, the “GR80 CYPSS” value [1, 3] was 70 g ai/ha, the “GR50 ECHSS” value [1, 4] was 4 g ai/ha and the “GR80 ECHSS” value [1, 4] was 15 g ai/ha. For the same compound, the “GR50 LEFSS” value [1, 5] was 8 g ai/ha, the “GR80 LEFSS” value [1, 5] was 23 g ai/ha and the “GR20 ORYSS” value ([1]; ORYSS: Oryza sativa (crop), probit analysis) was >70 g ai/ha. For the same compound, the “GR50 SCPJU” value [1, 6] was 1 g ai/ha, the “GR80 SCPJU” value [1, 6] was 1 g ai/ha and the “GR50 SEBEX” value [1, 7] was 1 g ai/ha. For the same compound, the “GR80 SEBEX” value [1, 7] was 1 g ai/ha, the pest or weed control at 35 g/ha [1, 8] was 85 to 94% and the pest or weed control at 70 g/ha [1, 8] was 85 to 94%. The pest or weed control at 35 g/ha [1, 9] was 85 to 94%, the pest or weed control at 70 g/ha [1, 9] was 85 to 94% and the pest or weed control at 35 g/ha [1, 10] was 85 to 94%. The pest or weed control at 70 g/ha [1, 10] was 95 to 100%, the pest or weed control at 35 g/ha [1, 11] was 85 to 94% and the pest or weed control at 70 g/ha [1, 11] was 95 to 100%. It also gave a pest or weed control at 35 g/ha [1, 12] of 0 to 29%, a pest or weed control at 70 g/ha [1, 12] of 0 to 29% and a pest or weed control at 35 g/ha [1, 13] of 95 to 100%. The pest or weed control at 70 g/ha [1, 13] was 95 to 100%, the pest or weed control at 35 g/ha [1, 14] was 95 to 100% and the pest or weed control at 70 g/ha [1, 14] was 95 to 100%.
